Experiment [1] has as its target T1, Sentrin-specific protease 8 (Homo sapiens, UniProt Q96LD8).
T1 sequence (Q96LD8 whole entry): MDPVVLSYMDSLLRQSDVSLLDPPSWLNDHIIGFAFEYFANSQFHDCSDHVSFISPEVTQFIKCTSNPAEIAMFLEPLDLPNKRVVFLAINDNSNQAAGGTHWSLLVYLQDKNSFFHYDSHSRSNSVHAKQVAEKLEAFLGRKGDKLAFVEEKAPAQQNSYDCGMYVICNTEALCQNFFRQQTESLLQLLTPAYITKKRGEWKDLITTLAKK
It is filed as functional.

The target of experiment [2] is T1, Sentrin-specific protease 8. It is filed as functional. The source holds these as a separate data set.
The target in experiment [3] is T2, Methionyl-tRNA synthetase, putative (Trypanosoma brucei brucei, UniProt Q38C91).
T2 sequence (Q38C91 whole entry): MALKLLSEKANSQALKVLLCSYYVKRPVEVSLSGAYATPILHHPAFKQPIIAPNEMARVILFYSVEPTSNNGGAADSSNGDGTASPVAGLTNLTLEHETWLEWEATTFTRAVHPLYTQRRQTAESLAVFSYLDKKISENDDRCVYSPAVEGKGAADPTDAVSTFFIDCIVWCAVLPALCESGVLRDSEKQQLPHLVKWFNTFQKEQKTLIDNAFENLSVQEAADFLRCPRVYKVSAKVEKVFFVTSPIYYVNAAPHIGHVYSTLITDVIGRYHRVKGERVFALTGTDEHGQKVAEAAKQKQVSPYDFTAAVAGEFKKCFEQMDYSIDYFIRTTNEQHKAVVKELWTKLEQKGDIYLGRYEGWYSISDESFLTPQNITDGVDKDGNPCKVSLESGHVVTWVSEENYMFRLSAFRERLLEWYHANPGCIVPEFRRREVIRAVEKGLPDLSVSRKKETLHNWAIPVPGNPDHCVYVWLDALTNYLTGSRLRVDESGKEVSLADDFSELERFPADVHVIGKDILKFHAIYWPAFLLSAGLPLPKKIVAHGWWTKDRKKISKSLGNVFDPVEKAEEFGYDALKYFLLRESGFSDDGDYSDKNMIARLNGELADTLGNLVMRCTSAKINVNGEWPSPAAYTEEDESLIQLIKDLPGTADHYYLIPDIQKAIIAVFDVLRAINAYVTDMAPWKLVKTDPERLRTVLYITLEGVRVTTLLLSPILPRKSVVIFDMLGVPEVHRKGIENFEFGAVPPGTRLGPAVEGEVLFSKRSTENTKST
The format is functional, Trypanosoma brucei brucei strain 927/4 GUTat10.1.

Experiment [4] in a line: Counterscreen for inhibitors of Trypanosoma brucei methionyl tRNA synthetase (MetRS): Luminescence-based cell-based high throughput dose response assay to identify compounds that are cytotoxic to Jurkat human T lymphocyte cells. The format is functional. (In general: Counterscreens check selectivity or assay interference.)
Experiment [5] concerns the target T2, Methionyl-tRNA synthetase, putative. It is filed as functional, Trypanosoma brucei brucei strain 927/4 GUTat10.1. The source holds these as a separate data set.
Experiment [6] has as its target T3, Tyrosine-protein phosphatase non-receptor type 22 (Homo sapiens, UniProt Q9Y2R2).
T3 sequence (Q9Y2R2 whole entry): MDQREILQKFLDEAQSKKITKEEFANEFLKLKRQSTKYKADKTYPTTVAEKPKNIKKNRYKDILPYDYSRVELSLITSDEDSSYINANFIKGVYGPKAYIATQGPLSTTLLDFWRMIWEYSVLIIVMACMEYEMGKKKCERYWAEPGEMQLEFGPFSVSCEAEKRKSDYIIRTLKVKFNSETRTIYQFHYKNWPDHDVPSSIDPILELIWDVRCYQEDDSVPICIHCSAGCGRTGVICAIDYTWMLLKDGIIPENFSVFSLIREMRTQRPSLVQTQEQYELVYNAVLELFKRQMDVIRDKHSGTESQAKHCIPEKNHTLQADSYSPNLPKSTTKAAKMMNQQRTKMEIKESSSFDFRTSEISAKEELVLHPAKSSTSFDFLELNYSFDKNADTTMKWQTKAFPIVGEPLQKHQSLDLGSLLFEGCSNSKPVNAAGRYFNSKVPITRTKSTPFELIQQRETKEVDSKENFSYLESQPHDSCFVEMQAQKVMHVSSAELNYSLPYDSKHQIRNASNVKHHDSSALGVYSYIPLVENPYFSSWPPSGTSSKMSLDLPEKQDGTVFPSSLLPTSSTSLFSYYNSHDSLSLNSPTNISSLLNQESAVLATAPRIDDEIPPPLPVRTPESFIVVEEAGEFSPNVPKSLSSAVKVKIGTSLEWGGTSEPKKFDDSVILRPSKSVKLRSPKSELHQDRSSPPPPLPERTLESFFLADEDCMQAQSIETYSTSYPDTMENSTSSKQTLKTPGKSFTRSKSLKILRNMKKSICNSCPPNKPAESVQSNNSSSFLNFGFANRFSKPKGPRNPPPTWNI
The experiment can be described thus: PTPN22 enzyme inhibitors – biochemical, fluorescence, LYP catalytic domain, selectivity assay for LMPTP inhibitor project, dose response (AID 652006). The format is functional. The settings on record: read-out: IC50_Mean.

For experiment [7], the target named is Low molecular weight phosphotyrosine protein phosphatase (Homo sapiens, UniProt P24666). It is filed as functional. The settings on record: read-out: IC50_Mean.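 Also: Dose-response confirmation assay measuring inhibition of LMPTP enzyme activity by fluorescence intensity read-out.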
In experiment [8] the target is T4, Sentrin-specific protease 1 (Homo sapiens, UniProt Q9P0U3). Briefly: SENP1 catalytic domain blockers, concentration series – biochemical, kinetic FRET, dose response (AID 651697). The format is functional. The settings on record: read-out: IC50_Mean.
Experiment [9] has as its target T5, Heat shock factor protein 1 (Mus musculus, UniProt P38532).
T5 sequence (P38532 whole entry): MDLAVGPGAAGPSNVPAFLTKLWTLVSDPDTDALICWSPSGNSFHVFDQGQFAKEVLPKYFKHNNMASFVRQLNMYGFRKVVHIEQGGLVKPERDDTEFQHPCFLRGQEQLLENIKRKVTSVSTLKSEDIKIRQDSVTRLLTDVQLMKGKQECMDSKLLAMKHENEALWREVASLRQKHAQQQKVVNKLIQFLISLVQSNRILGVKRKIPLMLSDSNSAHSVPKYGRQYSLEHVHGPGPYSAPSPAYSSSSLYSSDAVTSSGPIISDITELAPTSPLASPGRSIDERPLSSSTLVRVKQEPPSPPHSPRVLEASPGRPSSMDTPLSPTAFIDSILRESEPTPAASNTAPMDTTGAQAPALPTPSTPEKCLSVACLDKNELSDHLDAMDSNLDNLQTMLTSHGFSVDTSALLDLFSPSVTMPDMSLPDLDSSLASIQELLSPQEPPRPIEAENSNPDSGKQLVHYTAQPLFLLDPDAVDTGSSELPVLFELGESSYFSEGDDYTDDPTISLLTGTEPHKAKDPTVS
Briefly: enhancement of HSF1-driven luciferase signal – cell-based, NIH3T3, luminescence, dose retest, confirmation (AID 435004).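 Also: stress induced by proteasome inhibitor MG132 added 30 min after compound; luciferase reporter driven by HSF1 response element in NIH3T3 cells; actives raise luminescence as potentiators of the MG132 stress response.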 The format is functional.

Experiment [10] deals with T4, Sentrin-specific protease 1. Briefly: Dose response confirmation of small molecule inhibitors of the catalytic domain of the SUMO protease, SENP1 in a FRET assay. It is filed as functional. The settings on record: read-out: IC50_Mean.
The target in experiment [11] is T6, ATP-dependent translocase ABCB1 (Homo sapiens, UniProt P08183). The experiment can be described thus: P-gp JC-1 efflux blockade concentration-response – Jurkat-DNR cells, flow cytometry, set 2, dose response (AID 504569).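 Also: potency of pump inhibitors that raise cellular JC-1 green fluorescence up to the nicardipine level.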 It is filed as functional. The settings on record: read-out: EC50_MICROM_. For orientation: In flow cytometry, cells or beads pass a laser one at a time.

For experiment [12], the target named is T6, ATP-dependent translocase ABCB1. The experiment can be described thus: inhibition of BCRP-mediated JC-1 efflux – Ig-MXP3 cells, flow cytometry, set 2, dose response (AID 504566).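 Also: flow cytometry median green fluorescence of retained JC-1 dye; potency of efflux pump inhibition measured as rising substrate retention.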 The settings on record: read-out: EC50_MICROM_. It is filed as functional.
Experiment [13] has as its target Nuclear receptor subfamily 5 group A member 2 (Homo sapiens, UniProt O00482). The format is functional, cell-based.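 Also: HEK293T cells transfected with LRH-1 and a StAR promoter luciferase reporter; potency for inhibitors that lower LRH-1 driven reporter light.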
The next experiment deals with Steroidogenic factor 1 (Homo sapiens, UniProt Q13285). The experiment can be described thus: Counterscreen for inverse agonists of the liver receptor homolog-1 (LRH-1; NR5A2): Luminescence-based cell-based high throughput dose response assay to identify inverse agonists of the Steroidogenic Factor 1 Nuclear Receptor (SF1; NR5A1). The format is functional.
Experiment [14] can be described thus: nonselective StAR promoter luciferase inhibitors – cell-based, luminescence, luciferase reporter, counter-screen for LRH-1 inverse agonist project, dose response (AID 651969). The format is functional. (In general: In a reporter assay the amount or activity of a reporter protein is the signal.)

Calls of active or inactive are those of the source. A value given as a limit tells only on which side of the number the result lay.

T6 sequence (P08183 whole entry): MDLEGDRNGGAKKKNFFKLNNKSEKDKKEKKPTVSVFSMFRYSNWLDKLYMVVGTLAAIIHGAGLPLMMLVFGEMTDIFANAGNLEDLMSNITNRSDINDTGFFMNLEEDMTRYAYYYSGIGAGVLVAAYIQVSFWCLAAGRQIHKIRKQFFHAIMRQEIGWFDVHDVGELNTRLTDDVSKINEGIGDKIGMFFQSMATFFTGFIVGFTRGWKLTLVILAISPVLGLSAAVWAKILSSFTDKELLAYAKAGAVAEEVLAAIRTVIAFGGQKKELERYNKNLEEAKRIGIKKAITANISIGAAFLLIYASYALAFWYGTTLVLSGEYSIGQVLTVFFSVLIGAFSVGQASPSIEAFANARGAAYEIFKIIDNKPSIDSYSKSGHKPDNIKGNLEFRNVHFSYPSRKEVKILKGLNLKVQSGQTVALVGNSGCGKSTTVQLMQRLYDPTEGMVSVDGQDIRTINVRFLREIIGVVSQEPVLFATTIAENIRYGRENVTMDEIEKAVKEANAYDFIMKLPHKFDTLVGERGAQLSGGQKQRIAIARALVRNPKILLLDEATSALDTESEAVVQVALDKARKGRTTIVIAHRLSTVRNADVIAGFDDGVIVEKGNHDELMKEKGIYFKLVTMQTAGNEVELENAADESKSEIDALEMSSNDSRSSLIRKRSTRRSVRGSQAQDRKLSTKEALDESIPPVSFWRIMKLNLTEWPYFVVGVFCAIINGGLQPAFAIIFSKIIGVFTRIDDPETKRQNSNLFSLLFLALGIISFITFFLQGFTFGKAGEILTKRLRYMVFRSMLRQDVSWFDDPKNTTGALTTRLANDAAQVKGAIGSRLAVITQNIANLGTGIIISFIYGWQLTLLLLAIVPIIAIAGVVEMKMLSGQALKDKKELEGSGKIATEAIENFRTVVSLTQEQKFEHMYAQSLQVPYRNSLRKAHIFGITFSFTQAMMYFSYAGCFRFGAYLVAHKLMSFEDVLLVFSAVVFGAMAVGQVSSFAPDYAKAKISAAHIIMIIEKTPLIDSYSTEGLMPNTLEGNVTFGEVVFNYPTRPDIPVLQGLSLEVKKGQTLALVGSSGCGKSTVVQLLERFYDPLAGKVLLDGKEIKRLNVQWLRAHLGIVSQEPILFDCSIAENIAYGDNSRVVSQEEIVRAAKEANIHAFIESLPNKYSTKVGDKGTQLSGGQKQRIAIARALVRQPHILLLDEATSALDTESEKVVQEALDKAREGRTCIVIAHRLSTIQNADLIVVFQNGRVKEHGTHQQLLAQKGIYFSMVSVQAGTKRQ
T4 sequence (Q9P0U3 whole entry, the tested form may be a part): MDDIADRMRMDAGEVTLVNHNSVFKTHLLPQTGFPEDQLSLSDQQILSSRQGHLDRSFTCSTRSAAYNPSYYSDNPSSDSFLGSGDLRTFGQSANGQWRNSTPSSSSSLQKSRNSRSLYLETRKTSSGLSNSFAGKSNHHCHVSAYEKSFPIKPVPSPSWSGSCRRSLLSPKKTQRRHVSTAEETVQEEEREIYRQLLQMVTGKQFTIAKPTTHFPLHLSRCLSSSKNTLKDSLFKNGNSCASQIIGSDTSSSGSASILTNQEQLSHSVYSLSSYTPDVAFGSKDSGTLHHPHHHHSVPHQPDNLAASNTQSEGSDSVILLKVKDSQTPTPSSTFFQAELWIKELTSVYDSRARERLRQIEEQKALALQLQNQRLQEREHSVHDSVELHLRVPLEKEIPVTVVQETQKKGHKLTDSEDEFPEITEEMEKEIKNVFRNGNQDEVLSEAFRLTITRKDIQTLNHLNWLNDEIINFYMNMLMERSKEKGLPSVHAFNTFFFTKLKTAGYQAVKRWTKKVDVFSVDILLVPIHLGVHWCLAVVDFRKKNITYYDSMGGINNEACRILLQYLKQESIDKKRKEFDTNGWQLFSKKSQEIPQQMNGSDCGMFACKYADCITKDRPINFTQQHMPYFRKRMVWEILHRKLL
Sequence of Nuclear receptor subfamily 5 group A member 2 (O00482 whole entry): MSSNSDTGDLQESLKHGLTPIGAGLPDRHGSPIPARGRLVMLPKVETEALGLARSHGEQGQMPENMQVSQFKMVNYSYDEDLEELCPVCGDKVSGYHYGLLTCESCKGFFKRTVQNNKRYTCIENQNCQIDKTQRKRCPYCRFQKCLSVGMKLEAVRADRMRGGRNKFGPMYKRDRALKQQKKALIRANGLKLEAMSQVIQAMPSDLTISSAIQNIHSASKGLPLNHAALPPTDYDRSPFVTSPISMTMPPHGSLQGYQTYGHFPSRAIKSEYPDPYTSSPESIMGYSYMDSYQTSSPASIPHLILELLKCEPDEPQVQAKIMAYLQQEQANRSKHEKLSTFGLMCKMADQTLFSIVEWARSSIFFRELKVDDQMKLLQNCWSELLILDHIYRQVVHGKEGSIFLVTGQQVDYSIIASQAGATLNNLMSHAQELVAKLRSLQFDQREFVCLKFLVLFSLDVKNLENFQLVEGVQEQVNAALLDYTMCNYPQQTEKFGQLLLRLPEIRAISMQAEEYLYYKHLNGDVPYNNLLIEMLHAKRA
Sequence of Steroidogenic factor 1 (Q13285 whole entry): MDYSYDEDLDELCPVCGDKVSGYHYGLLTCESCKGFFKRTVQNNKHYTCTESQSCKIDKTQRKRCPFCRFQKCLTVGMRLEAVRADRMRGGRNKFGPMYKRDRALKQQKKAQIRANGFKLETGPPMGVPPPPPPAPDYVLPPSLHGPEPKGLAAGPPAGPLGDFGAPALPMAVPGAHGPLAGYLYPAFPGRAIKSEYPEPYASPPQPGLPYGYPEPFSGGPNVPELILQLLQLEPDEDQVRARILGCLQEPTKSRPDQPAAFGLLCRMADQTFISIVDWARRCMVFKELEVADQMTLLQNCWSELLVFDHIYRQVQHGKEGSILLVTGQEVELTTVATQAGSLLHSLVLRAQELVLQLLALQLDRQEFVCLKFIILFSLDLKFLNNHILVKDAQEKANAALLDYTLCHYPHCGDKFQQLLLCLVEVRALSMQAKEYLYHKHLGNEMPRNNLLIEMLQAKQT
Sequence of Low molecular weight phosphotyrosine protein phosphatase (P24666 whole entry, the tested form may be a part): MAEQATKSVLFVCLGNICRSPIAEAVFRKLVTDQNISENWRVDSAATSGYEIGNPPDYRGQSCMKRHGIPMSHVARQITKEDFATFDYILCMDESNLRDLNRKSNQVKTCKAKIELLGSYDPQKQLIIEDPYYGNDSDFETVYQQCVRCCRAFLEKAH

Turning to `CN1CCC2(CC1)N=C(c1ccc(F)cc1)C(=S)N2C(=O)c1ccccc1`, the IC50 in [1] was > 100 µM (inactive); in experiment [2] it was 28.6 µM (active).

Take `O=C(CCCOc1ccc(Cl)cc1Cl)N/N=C/c1ccccc1`: the IC50 in [3] is 16 µM (inactive); in experiment [4], 83.3 µM (inactive); in experiment [5] it was 110 µM (inactive).

`NS(=O)(=O)c1ccc(CCNC(=O)c2ccc3nccnc3c2)cc1`: the IC50 was 54.2 µM (inactive) in experiment [6] and 17.1 µM (active) in experiment [7].

As for `CSc1c(C#N)c(N)nc2sc(C(=O)c3ccccc3)c(N)c12`, the IC50 was 13.2 µM (active) in experiment [8] and 13.8 µM (active) in experiment [10]. Besides, the EC50 in experiment [9] was 95.5 µM (active).

Regarding `COc1ccc(-c2cc(N3CCN(C(=O)c4ccoc4)CC3)n3nc(-c4cccc(Cl)c4)cc3n2)cc1`, the values for the EC50 in experiment [11] and in experiment [12] were 4.86 µM (active) and 1.3 µM (active), respectively.

Consider `CCOc1ccc(NC(=O)CSc2nc(O)c3c[nH]nc3n2)cc1`, for which the IC50 in experiment [13] was 8.61 µM (active); at Steroidogenic factor 1, 2.89 µM (active); in [14] it was 35.9 µM (inactive).

(Values after ChEMBL document CHEMBL1201862, “PubChem BioAssay data set” (2004).)
